Data as given in patent publication US20080188503A1, “New Compounds II” (AstraZenaca AB, priority 2006, published 2008).

Biological target: T1, recombinant human GSK3β (Homo sapiens, UniProt P49841)
T1 construct: purchased Dundee University, UK
Assay: GSK3β Scintillation Proximity Assay (ATP competition)
Format: biochemical
Conditions: recombinant human GSK3β SPA; 1 μM ATP, 1 μM biotinylated peptide substrate; Ki calculated with Km of ATP 20 μM
Description: Determination of ATP Competition in Scintillation Proximity GSK3β Assay.
GSK3β Scintillation Proximity Assay.
The competition experiments were carried out in duplicate with 10 different concentrations of the inhibitors in clear-bottom microtiter plates (Wallac, Finland). A biotinylated peptide substrate, Biotin-Ala-Ala-Glu-Glu-Leu-Asp-Ser-Arg-Ala-Gly-Ser(PO3H2)-Pro-Gln-Leu (AstraZeneca, Lund), was added at a final concentration of 1 μM in an assay buffer containing 1 mU recombinant human GSK3β (Dundee University, UK), 12 mM morpholinepropanesulfonic acid (MOPS), pH 7.0, 0.3 mM EDTA, 0.01% β-mercaptoethanol, 0.004% Brij 35 (a […] detergent), 0.5% glycerol and 0.5 μg BSA/25 μl. The reaction was initiated by the addition of 0.04 μCi [γ-^33P]ATP (Amersham, UK) and unlabelled ATP at a final concentration of 1 μM and assay volume of 25 μl. After incubation for 20 minutes at room temperature, each reaction was terminated by the addition of 25 μl stop solution containing 5 mM EDTA, 50 μM ATP, 0.1% Triton X-100 and 0.25 mg streptavidin coated Scintillation Proximity Assay (SPA) beads (Amersham, UK). After 6 hours the radioactivity was determined in a liquid scintillation counter (1450 MicroBeta Trilux, Wallac). The inhibition curves were analysed by non-linear regression using GraphPad Prism, USA. The Km value of ATP for GSK3β, used to calculate the inhibition constants (Ki) of the various compounds, was 20 μM.

T1 sequence (P49841 whole entry): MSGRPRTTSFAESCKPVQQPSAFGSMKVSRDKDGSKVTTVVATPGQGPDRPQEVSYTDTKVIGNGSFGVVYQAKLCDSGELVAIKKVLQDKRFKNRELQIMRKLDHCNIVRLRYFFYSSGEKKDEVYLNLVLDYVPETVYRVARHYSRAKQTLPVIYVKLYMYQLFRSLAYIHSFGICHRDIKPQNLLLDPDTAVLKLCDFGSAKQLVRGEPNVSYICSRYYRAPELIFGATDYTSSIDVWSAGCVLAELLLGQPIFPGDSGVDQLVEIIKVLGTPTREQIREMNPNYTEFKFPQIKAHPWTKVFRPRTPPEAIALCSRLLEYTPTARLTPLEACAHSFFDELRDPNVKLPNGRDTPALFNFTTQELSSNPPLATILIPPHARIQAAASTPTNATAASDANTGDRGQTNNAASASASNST

Ki | SMILES
36 nM | Cc1ncc(-c2nc(NC3CCN(C(=O)Cc4ccccc4)CC3)ncc2F)n1C1CCOCC1 [Example 39, 5-Fluoro-4-[2-methyl-1-(tetrahydro-2H-pyran-4-yl)-1H-imidazol-5-yl]-N-[1-(phenylacetyl)piperidin-4-yl]pyrimidin-2-amine]
210 nM | Cc1ncc(-c2nc(Nc3ccc(CN4CCCC4)nc3)ncc2F)n1C1CCOCC1 [Example 19, 5-Fluoro-4-[2-methyl-1-(tetrahydro-2H-pyran-4-yl)-1H-imidazol-5-yl]-N-[6-(pyrrolidin-1-ylmethyl)pyridin-3-yl]pyrimidin-2-amine]
10 nM | Cc1ncc(-c2nc(Nc3ccc(CN4CCN(c5ncccn5)CC4)nc3)ncc2F)n1C1CCOCC1 [Example 14, 5-Fluoro-4-[2-methyl-1-(tetrahydro-2H-pyran-4-yl)-1H-imidazol-5-yl]-N-{6-[(4 pyrimidin-2-ylpiperazin-1-yl)methyl]pyridin-3-yl}pyrimidin-2-amine]
120 nM | CC(=O)N1CCC(Nc2ncc(F)c(-c3cnc(C)n3C3CCOCC3)n2)CC1 [Example 35, N-(1-Acetylpiperidin-4-yl)-5-fluoro-4-[2-methyl-1-(tetrahydro-2H-pyran-4-yl)-1H-imidazol-5-yl]pyrimidin-2-amine]
170 nM | Cc1ncc(-c2nc(Nc3ccc(CN4CCCC(CO)C4)nc3)ncc2F)n1C1CCOCC1 (centres unmarked) [Example 23, (1-{[5-({5-Fluoro-4-[2-methyl-1-(tetrahydro-2H-pyran-4-yl)-1H-imidazol-5-yl]pyrimidin-2-yl}amino)pyridin-2-yl]methyl}piperidin-3-yl)methanol]
87 nM | Cc1ncc(-c2nc(NC3CCOCC3)ncc2F)n1C1CCOCC1 [Example 34, 5-Fluoro-4-[2-methyl-1-(tetrahydro-2H-pyran-4-yl)-1H-imidazol-5-yl]-N-(tetrahydro-2H-pyran-4-yl)pyrimidin-2-amine]
140 nM | Cc1ncc(-c2nc(NC3CCN(Cc4ccccc4)CC3)ncc2F)n1C1CCOCC1 [Example 37, N-(1-Benzylpiperidin-4-yl)-5-fluoro-4-[2-methyl-1-(tetrahydro-2H-pyran-4-yl)-1H-imidazol-5-yl]pyrimidin-2-amine]
280 nM | CCN(CCOC)Cc1ccc(Nc2ncc(F)c(-c3cnc(C)n3C3CCOCC3)n2)cn1 [Example 28, N-(6-{[Ethyl(2-methoxyethyl)amino]methyl}pyridin-3-yl)-5-fluoro-4-[2-methyl-1-(tetrahydro-2H-pyran-4-yl)-1H-imidazol-5-yl]pyrimidin-2-amine]
64 nM | Cc1ncc(-c2nc(Nc3ccc(CN4CCOCC4)nc3)ncc2F)n1C1CCOCC1 [Example 10, 5-Fluoro-4-[2-methyl-1-(tetrahydro-2H-pyran-4-yl)-1H-imidazol-5-yl]-N-[6-(morpholin-4-ylmethyl)pyridin-3-yl]pyrimidin-2-amine]
48 nM | Cc1ncc(-c2nc(Nc3ccc(CNCC#N)nc3)ncc2F)n1C1CCOCC1 [Example 29, ({[5-({5-Fluoro-4-[2-methyl-1-(tetrahydro-2H-pyran-4-yl)-1H-imidazol-5-yl]pyrimidin-2-yl}amino)pyridin-2-yl]methyl}amino)acetonitrile]
75 nM | Cc1ncc(-c2nc(Nc3ccc(CN(CCC#N)CC4CCCO4)nc3)ncc2F)n1C1CCOCC1 (centres unmarked) [Example 26, 3-[{[5-({5-Fluoro-4-[2-methyl-1-(tetrahydro-2H-pyran-4-yl)-1H-imidazol-5-yl]pyrimidin-2-yl}amino)pyridin-2-yl]methyl}(tetrahydrofuran-2-ylmethyl)amino]propanenitrile]
210 nM | Cc1ncc(-c2nc(NC3CCN(C(=O)OC(C)(C)C)CC3)ncc2F)n1C1CCOCC1 [Example 33, tert-Butyl 4-({5-fluoro-4-[2-methyl-1-(tetrahydro-2H-pyran-4-yl)-1H-imidazol-5-yl]pyrimidin-2-yl}amino)piperidine-1-carboxylate]
28 nM | Cc1ccc(Nc2ncc(F)c(-c3cnc(C)n3C3CCOCC3)n2)cn1 [Example 5, 5-Fluoro-N-(6-methylpyridin-3-yl)-4-[2-methyl-1-(tetrahydro-2H-pyran-4-yl)-1H-imidazol-5-yl]pyrimidin-2-amine]
91 nM | Cc1ncc(-c2nc(NC3CCN(C(=O)C(F)(F)F)CC3)ncc2F)n1C1CCOCC1 [Example 42, 5-Fluoro-4-[2-methyl-1-(tetrahydro-2H-pyran-4-yl)-1H-imidazol-5-yl]-N-[1-(trifluoroacetyl)piperidin-4-yl]pyrimidin-2-amine]
1100 nM | COc1ccnc(Nc2ncc(F)c(-c3cnc(C)n3C3CCOCC3)n2)c1 [Example 6, 5-Fluoro-N-(4-methoxypyridin-2-yl)-4-[2-methyl-1-(tetrahydro-2H-pyran-4-yl)-1H-imidazol-5-yl]pyrimidin-2-amine]
57 nM | Cc1ncc(-c2nc(NC3CCN(C(=O)c4ccccc4)CC3)ncc2F)n1C1CCOCC1 [Example 38, N-(1-Benzoylpiperidin-4-yl)-5-fluoro-4-[2-methyl-1-(tetrahydro-2H-pyran-4-yl)-1H-imidazol-5-yl]pyrimidin-2-amine]
16 nM | Cc1ncc(-c2nc(NC3CCCCC3)ncc2F)n1C1CCOCC1 [Example 36, N-Cyclohexyl-5-fluoro-4-[2-methyl-1-(tetrahydro-2H-pyran-4-yl)-1H-imidazol-5-yl]pyrimidin-2-amine]
330 nM | Cc1ncc(-c2nc(Nc3ccc(CN4CCC4)nc3)ncc2F)n1C1CCOCC1 [Example 27, N-[6-(Azetidin-1-ylmethyl)pyridin-3-yl]-5-fluoro-4-[2-methyl-1-(tetrahydro-2H-pyran-4-yl)-1H-imidazol-5-yl]pyrimidin-2-amine]
530 nM | COc1cccc(Nc2ncc(F)c(-c3cnc(C)n3C3CCOCC3)n2)n1 [Example 3, 5-Fluoro-N-(6-methoxypyridin-2-yl)-4-[2-methyl-1-(tetrahydro-2H-pyran-4-yl)-1H-imidazol-5-yl]pyrimidin-2-amine]
39 nM | Cc1ncc(-c2nc(Nc3ccncc3)ncc2F)n1C1CCOCC1 [Example 31, {5-Fluoro-4-[2-methyl-3-(tetrahydro-pyran-4-yl)-3H-imidazol-4-yl]-pyrimidin-2-yl}-pyridin-4-yl-amine]
53 nM | Cc1ncc(-c2nc(NC3CCN(S(=O)(=O)c4ccccc4)CC3)ncc2F)n1C1CCOCC1 [Example 43, 5-Fluoro-4-[2-methyl-1-(tetrahydro-2H-pyran-4-yl)-1H-imidazol-5-yl]-N-[1-(phenylsulfonyl)piperidin-4-yl]pyrimidin-2-amine]
260 nM | Cc1ncc(-c2nc(Nc3ccc(CN4CCCCC4)nc3)ncc2F)n1C1CCOCC1 [Example 12, 5-Fluoro-4-[2-methyl-1-(tetrahydro-2H-pyran-4-yl)-1H-imidazol-5-yl]-N-[6-(piperidin-1-ylmethyl)pyridin-3-yl]pyrimidin-2-amine]
75 nM | CC(=O)N1CCCN(Cc2ccc(Nc3ncc(F)c(-c4cnc(C)n4C4CCOCC4)n3)cn2)CC1 [Example 16, N-{6-[(4-Acetyl-1,4-diazepan-1-yl)methyl]pyridin-3-yl}-5-fluoro-4-[2-methyl-1-(tetrahydro-2H-pyran-4-yl)-1H-imidazol-5-yl]pyrimidin-2-amine]
42 nM | Cc1ncc(-c2nc(Nc3ccc(CN4CCC(F)(F)CC4)nc3)ncc2F)n1C1CCOCC1 [Example 18, N-{6-[(4,4-Difluoropiperidin-1-yl)methyl]pyridin-3-yl}-5-fluoro-4-[2-methyl-1-(tetrahydro-2H-pyran-4-yl)-1H-imidazol-5-yl]pyrimidin-2-amine]
79 nM | Cc1ncc(-c2nc(Nc3ccc(CN4CCCOCC4)nc3)ncc2F)n1C1CCOCC1 [Example 21, 5-Fluoro-4-[2-methyl-1-(tetrahydro-2H-pyran-4-yl)-1H-imidazol-5-yl]-N-[6-(1,4 oxazepan-4-ylmethyl)pyridin-3-yl]pyrimidin-2-amine]
290 nM | Cc1ncc(-c2nc(Nc3ccc(CN4CCCN(C)CC4)nc3)ncc2F)n1C1CCOCC1 [Example 13, 5-Fluoro-N-{6-[(4-methyl-1,4-diazepan-1-yl)methyl]pyridin-3-yl}-4-[2-methyl-1-(tetrahydro-2H-pyran-4-yl)-1H-imidazol-5-yl]pyrimidin-2-amine]
760 nM | Cc1ncc(-c2nc(Nc3ccc(CN4CC(C)OC(C)C4)nc3)ncc2F)n1C1CCOCC1 (centres unmarked) [Example 17, N-{6-[(2,6-Dimethylmorpholin-4-yl)methyl]pyridin-3-yl}-5-fluoro-4-[2-methyl-1-(tetrahydro-2H-pyran-4-yl)-1H-imidazol-5-yl]pyrimidin-2-amine]
120 nM | Cc1ncc(-c2nc(NC3CCN(S(C)(=O)=O)CC3)ncc2F)n1C1CCOCC1 [Example 41, 5-Fluoro-N-[1-(methylsulfonyl)piperidin-4-yl]-4-[2-methyl-1-(tetrahydro-2H-pyran-4-yl)-1H-imidazol-5-yl]pyrimidin-2-amine]
220 nM | Cc1ncc(-c2nc(Nc3cncnc3)ncc2F)n1C1CCOCC1 [Example 1, 5-Fluoro-4-[2-methyl-1-(tetrahydro-2H-pyran-4-yl)-1H-imidazol-5-yl]-N-pyrimidin-5-ylpyrimidin-2-amine]
